Several values for one entry are separate records, joined by “and”; a condition that tells them apart may be missing. Equal entries are not always repeated.
Legend:
rats = tested on: rats
Experimental: The compound prepared according to Example 1 was subjected to a toxicity study in accordance with techniques well-known in the art. The study was conducted on rats over a three-day testing period.

[1] = prior-art antisickling agent; cited from earlier work
[2] = second day, 0.01% dosage, individual rats #A-#D, listed as active agent

| Structure (SMILES) | rats killed after administration of the drug formulation (rats; rats, three days, 0.001%, 0.01%, 0.1% of rat weight on days 1, 2, 3) | toxicity (rats; rats, three-day study, 0.001%, 0.01%, 0.1% of rat weight) | Body Fluid Concentraton 0.01% (rats; [2]) | Weight After (rats; [2]) | Weight Before (rats; [2]) | Weight Change (rats; [2]) | toxicity [1] |
| --- | --- | --- | --- | --- | --- | --- | --- |
| Cc1c(C)c2c(c(C)c1OC(=O)C(N)CC[S+](C)CC1OC(n3cnc4c(N)ncnc43)C(O)C1O)CCC(C)(CCCC(C)CCCC(C)CCCC(C)C)O2.[I-] (stereo not drawn) [Example 1, α-(S-adenosylmethionine)-O-tocopherol] | none of the rats tested were killed | substantially non-toxic | 0.14 and 0.07 | 28.5 grams and 26.4 grams and 29.5 grams | 28.3 grams and 26.3 grams and 29.4 grams | 0.2 grams and 0.1 grams | – |
| N#CO [potassium cyanate] | – | – | – | – | – | – | rather high toxicity |

From patent US5108754A, “Orthomolecular method of treating sickle cell disease” (priority 1991, dated 1992)
